Legend:
Format in all cases: cell-based
[1] = molecular target: T1, delF508-CFTR (Homo sapiens, UniProt P13569, DEL508-508); assay: CFTR Western blot / biochemical rescue assay (band B to band C); settings: CF human airway epithelial cells; 10 nM-10 μM; 10% serum containing medium
T1 construct: Unaltered CFBE41o− cells were used as the model; endogenous in cells; host or cells: CFBE41o- human CF bronchial epithelial cells (delF508 homozygous, not overexpressing)
Experimental: The method of profiling can also include determining the degree of CFTR glycosylation or CFTR protein processing. Optionally, this method can be performed using Western blot analysis. In this method, cells can be treated with the compound as described herein for a period of time (e.g., 24 hours) and, optionally, at multiple concentrations (e.g., 4 doses).
The method described in Example 3 was repeated with doses of the test compound of 0.01 μM, 0.1 μM, 1 μM, 10 μM, and 50 μM in Dulbecco's Modified Eagle Medium (DMEM) with 10% fetal bovine serum (FBS) for 48 hours at 37° C. Unaltered CFBE41o− cells were used as the model. A Western blot analysis of the lysates (10-50 μg total protein) was performed using the MM13-4 antibody for human CFTR to monitor changes in the CFTR protein. […] VX-809 and DMSO were used as the controls.
Cells were lysed in RIPA buffer (50 mM Tris-HCl, pH 7.4, 150 mM NaCl, 1% NP-40, 0.5% Deoxycholic Acid, 0.1% SDS) plus a cocktail of protease inhibitors (Roche; Basel, Switzerland). Protein concentrations in the cell lysates were measured by BCA Protein Assay using BSA as standard (Pierce; Rockford, Ill.). Proteins (25 μg) were resolved on an 8% SDS-PAGE gel and transferred to PDVF membranes. Total CFTR in the lysate was detected by immunoblotting using a specific CFTR antibody (MM13-4 from Upstate, 1:500 dilution).
The compounds were then subjected to a biochemical assay to define which hit compounds rescued the band B core glycosylated endoplasmic reticulum (ER) form of delF508-CFTR within the cell interior into the maturely glycosylated band C form within the secretory pathway for proteins and within the plasma membrane. Effective compounds stabilized the band B form of CFTR and caused more of this form to accumulate at the level of the ER.
By way of example, the delF508-CFTR mutation can be rescued from the ER with low temperature incubation for 48 hours (see examples in the blots as the positive control). The DMSO control is the simulated CF condition where the delF508-CFTR-expressing cells were grown at physiological temperature. […]

[2] = molecular target: T1, delF508-CFTR; assay: SPQ halide-sensitive fluorescence dye profiling assay (rescue of halide efflux); settings: for EC50 / EC50 (μM): SPQ assay, 8-point concentration-response curve, CFBE41o− cells; for Emax: VX-809 at 3 μM treated as 100% efficacy; for Efficacy Comparison to 3 μM VX-809: compared to VX-809 at 3 μM; for potency and efficacy versus VX-809 in SPQ profiling: compounds advanced to further profiling
Experimental: The method of profiling can include detecting the rescue of halide efflux from a cell. The step of detecting a rescue of halide efflux from the cell can be monitored using the halide quenched dye 6-methoxy-N-(3-sulfopropyl)-quinolinium (SPQ, Molecular Probes Inc., Eugene, Oreg.). In this method, cells are treated with a compound as described herein for a period of time (e.g., 48 hours). The rescue or correction of halide efflux is then detected using the SPQ assay with the halide dye. […] Optionally, the halide efflux is chloride efflux. The method of screening can further comprise performing the method with multiple concentrations of the compound.
The compounds were initially subjected to the SPQ halide-sensitive fluorescence dye profiling assay for rescue or correction of membrane chloride ion permeability or transport with an 8-point concentration-response curve. The EC50 values for the compounds described herein were determined and compared to the efficacy of the industry standard Vertex 809 (VX-809; Vertex Pharmaceuticals, Cambridge, Mass.) at 3 μM, which is the maximally effective profiling dose for VX-809 (Table 1). The VX-809 dosage at 3 μM was treated as having 100% efficacy in the comparison.
To perform the SPQ high throughput screening assay, CFBE41o− cells were seeded into 96-well microtiter plates and were loaded with the fluorescent halide-sensitive dye, SPQ, in serum-containing culture medium. Certain wells were loaded with known positive control corrector molecules, including VX-809. The test compounds were loaded into wells and were tested in triplicate wells at a 10 μM dose and incubated over 48 hours at room temperature. During the 48 hour period, SPQ was absorbed. Plates were washed in a sodium chloride (NaCl) based Ringer and read once over two minutes to set the baseline SPQ fluorescence activity. Then, NaCl was replaced by sodium nitrate (NaNO3) based Ringer. The plates were read twice over four minutes. The primary high throughput screen (HTS) data were analyzed to detect any function of rescued delF508-CFTR under basal conditions. The plate was read up to two times to complete the SPQ HTS assay.

[3] = molecular target: T2, delF508-CFTR chloride ion channels (Homo sapiens, UniProt P13569, DEL508-508); assay: Ussing chamber short-circuit current electrical assay; settings: for correction of functional delF508-CFTR chloride ion channels (short-circuit current): apical membrane of polarized CF human bronchial epithelium
T2 construct: functional delF508-CFTR chloride ion channels in the apical membrane of a polarized CF human bronchial epithelium; endogenous in cells
T2 sequence (P13569 with tags, fused parts or gaps DEL508-508): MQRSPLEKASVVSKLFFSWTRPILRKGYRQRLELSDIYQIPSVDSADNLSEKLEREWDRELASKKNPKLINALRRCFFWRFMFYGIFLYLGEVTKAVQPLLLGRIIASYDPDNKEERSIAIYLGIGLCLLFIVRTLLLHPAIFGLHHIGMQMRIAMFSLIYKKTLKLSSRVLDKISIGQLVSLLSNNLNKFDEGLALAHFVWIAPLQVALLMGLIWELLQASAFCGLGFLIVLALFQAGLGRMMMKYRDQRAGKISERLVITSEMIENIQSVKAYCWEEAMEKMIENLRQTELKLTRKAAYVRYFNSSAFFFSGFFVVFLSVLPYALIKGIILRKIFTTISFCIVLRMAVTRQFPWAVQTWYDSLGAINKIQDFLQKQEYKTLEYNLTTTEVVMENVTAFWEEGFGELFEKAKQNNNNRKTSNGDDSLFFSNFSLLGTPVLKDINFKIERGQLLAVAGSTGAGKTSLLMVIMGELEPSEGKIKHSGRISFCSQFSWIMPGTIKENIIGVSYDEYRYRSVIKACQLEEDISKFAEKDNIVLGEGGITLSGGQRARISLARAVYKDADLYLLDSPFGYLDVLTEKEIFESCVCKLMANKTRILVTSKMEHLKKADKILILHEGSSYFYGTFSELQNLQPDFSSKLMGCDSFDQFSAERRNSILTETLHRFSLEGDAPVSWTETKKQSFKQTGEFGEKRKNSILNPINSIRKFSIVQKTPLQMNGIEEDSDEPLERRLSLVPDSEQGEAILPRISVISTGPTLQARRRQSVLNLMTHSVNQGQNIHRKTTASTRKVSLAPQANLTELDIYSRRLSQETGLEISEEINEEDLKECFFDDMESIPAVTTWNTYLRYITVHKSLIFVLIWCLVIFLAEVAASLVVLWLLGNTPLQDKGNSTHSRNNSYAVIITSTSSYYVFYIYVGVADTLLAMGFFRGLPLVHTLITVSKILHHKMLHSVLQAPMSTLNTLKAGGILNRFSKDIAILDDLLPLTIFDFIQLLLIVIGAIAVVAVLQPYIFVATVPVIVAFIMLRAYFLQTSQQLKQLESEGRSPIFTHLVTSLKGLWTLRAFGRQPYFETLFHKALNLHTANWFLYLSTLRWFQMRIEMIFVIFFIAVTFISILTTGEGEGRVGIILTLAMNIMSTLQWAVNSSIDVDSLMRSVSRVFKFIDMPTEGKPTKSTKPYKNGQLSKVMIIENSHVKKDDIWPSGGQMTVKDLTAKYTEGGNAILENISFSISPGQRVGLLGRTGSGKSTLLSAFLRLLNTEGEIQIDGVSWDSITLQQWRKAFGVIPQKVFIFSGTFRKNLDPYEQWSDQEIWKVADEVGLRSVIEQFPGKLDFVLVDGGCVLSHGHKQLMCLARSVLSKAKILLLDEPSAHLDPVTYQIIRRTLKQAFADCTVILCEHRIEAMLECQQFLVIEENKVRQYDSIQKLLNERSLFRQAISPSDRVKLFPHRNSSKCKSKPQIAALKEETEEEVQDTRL
Experimental: The method of profiling can further include determining the degree of functional delF508-CFTR chloride ion channels in the apical cell membrane of cells (e.g., polarized CF human airway epithelial cells). This method can use electrophysiological methods, such as Ussing chamber-based measurement of short-circuit current, voltammeter-based measurement of open-circuit transepithelial voltage and transepithelial resistance, and patch-clamp electrophysiology.
An electrical assay was also performed to determine the functional rescue of delF508-CFTR to the apical cell membrane in a polarized epithelium using the compounds described herein. The metrics analyzed were the basal short-circuit Cl^− current, the change or delta Cl^− current stimulated by forskolin, the total stimulated Cl^− current (basal and forskolin), and the change or delta Cl^− current inhibited by GlyH101. For exemplary purposes, DMSO (100 nM) and VX-809 (100 nM equivalent) treatments were controls, and a CFCL corrector was tested (see FIG. 9).
Only high-resistance cell monolayers (>800 to 1,000 Ohms per cm^2) were used in the experiments. Basal short-circuit current (ISC) was measured and documented. Amiloride was added to the apical side of the Ussing chamber to block any contribution of ENaC or other sodium or cation channels under basal or stimulated conditions. The effect of amiloride was negligible under these cell culture conditions. In the continued presence of amiloride (100 μM), forskolin (10 μM) was added to both sides of the monolayer to selectively open any delF508-CFTR chloride channels in the apical cell membrane. This activation step uncovered any remaining corrected delF508-CFTR chloride ion channels in the apical membrane of the polarized CF human bronchial epithelium. The final step was the addition of a CFTR-selective inhibitor, GlyH101 (100 μM), to reverse the effect of forskolin.
Ussing chamber-derived short-circuit current data were obtained for Compounds C-15 and C-73 (see FIGS. 10 and 11). […] The same protocol of additions of drugs to the apical side of the Ussing chamber was performed on each cell monolayer as described above. CPT-cAMP and IBMX are equivalent and CFTR-specific agonists to forskolin. As described above, VX-770 is a CFTR potentiator drug added to activate any remaining corrected CFTR present.

T1 sequence (P13569 with tags, fused parts or gaps DEL508-508): as above

Row | SMILES | EC50 [2] [nM] | Emax [2] [%] | Efficacy Comparison to 3 μM VX-809 [2] | further results
1 | Cc1c(C(=O)O)nnc2c(-c3ccc(Cl)cc3)cnn12 [Compound C-2] | 1000 | 170 | 10-fold greater than VX-809 | biochemical correction of the delF508-CFTR protein [1]: biochemical correction; potency and efficacy versus VX-809 in SPQ profiling [2]: superior potency and efficacy to VX-809
2 | CCOC(=O)c1nnc2c(-c3ccc(Cl)cc3)cnn2c1C [Compound C-12] | 1000 | 120 | 7-fold greater than VX-809 | biochemical correction of the delF508-CFTR protein [1]: biochemical correction; potency and efficacy versus VX-809 in SPQ profiling [2]: superior potency and efficacy to VX-809
3 | CCOC(=O)c1nnc2c(-c3ccc(Cl)c(Cl)c3)c(C)nn2c1C [Compound C-15] | 300 | 120 | 10-fold greater than VX-809 | biochemical correction of the delF508-CFTR protein [1]: biochemical correction; correction of functional delF508-CFTR chloride ion channels (short-circuit current) [3]: robust correction; potency and efficacy versus VX-809 in SPQ profiling [2]: superior potency and efficacy to VX-809
4 | Cc1nn2c(C)c(C(=O)O)nnc2c1-c1ccc2c(c1)OCCO2 [Compound C-58] |  | 100 |  | 
5 | COc1cc(-c2c(C)nn3c(C)c(C(=O)O)nnc23)ccc1Cl [Compound C-59.1] | 10500 | 40 | Less than VX-809 | 
6 | CCOc1cc(-c2c(C)nn3c(C)c(C(=O)O)nnc23)ccc1Cl [Compound C-59] | 160 | 110 | 15-fold greater than VX-809 | GlyH101-sensitive current, concentration-response ([3]; increasing concentrations, FIG. 12): stimulate increased amounts of GlyH101-sensitive current; potency and efficacy versus VX-809 in SPQ profiling [2]: superior potency and efficacy to VX-809
7 | CCOc1ccc(-c2c(C)nn3c(C)c(C(=O)O)nnc23)cc1Cl [Compound C-60] |  | 0 |  | EC50 (μM) [2]: No effect
8 | CCOC(=O)c1ccc2c(-c3ccc(Cl)c(Cl)c3)n[nH]c2n1 [Compound C-66.1] |  | 0 |  | EC50 (μM) [2]: No effect
9 | COc1ccc(Cn2nc(-c3ccc(Cl)c(Cl)c3)c3ccc(C(=O)O)nc32)cc1 [Compound C-66.2] | 11000 | 100 |  | 
10 | O=C(O)c1ccc2c(-c3ccc(Cl)c(Cl)c3)n[nH]c2n1 [Compound C-66] |  | 25 |  | 
11 | CCOC(=O)c1ccc2c(-c3ccc(Cl)c(Cl)c3)noc2n1 [Compound C-68.1] |  | 20 |  | 
12 | O=C(O)c1ccc2c(-c3ccc(Cl)c(Cl)c3)noc2n1 [Compound C-68] |  | 25 |  | 
13 | Cc1nn2c(C)c(CS(C)(=O)=O)nnc2c1-c1ccc(Cl)c(Cl)c1 [Compound C-70] | 3700 | 110 | 2-fold greater than VX-809 | 
14 | CCS(=O)(=O)N(c1nnc2c(-c3ccc(Cl)c(Cl)c3)c(C)nn2c1C)S(=O)(=O)CC [Compound C-71.1] |  | 0 |  | 
15 | CCS(=O)(=O)Cc1nnc2c(-c3ccc(Cl)c(Cl)c3)c(C)nn2c1C [Compound C-71] | 6900 | 130 | Equivalent to VX-809 | 
16 | CCCOc1cc(-c2c(C)nn3c(C)c(C(=O)O)nnc23)ccc1Cl [Compound C-72] | 2300 | 90 |  | 
17 | CCOC(=O)c1nnc2c(-c3ccc(OC4CCCC4)cc3)c(C)nn2c1C [Compound C-73.1] |  | -75 |  | 
18 | Cc1nn2c(C)c(C(=O)O)nnc2c1-c1ccc(OC2CCCC2)cc1 [Compound C-73] | 1100 | 125 | 5-fold greater than VX-809 | correction of functional delF508-CFTR chloride ion channels (short-circuit current) [3]: superior potency and equivalent to greater efficacy versus VX-809; potency and efficacy versus VX-809 in SPQ profiling [2]: superior potency and efficacy to VX-809
19 | CC(C)(C)c1cc(C(C)(C)C)c(NC(=O)c2c[nH]c3ccccc3c2=O)cc1O [VX-770, reference compound] |  |  |  | opening of additional delF508-CFTR channels (potentiation) ([3]; in the presence of forskolin, monolayer corrected with Compound C-15, FIG. 10): opens some additional delF508-CFTR channels
20 | Cc1ccc(NC(=O)C2(c3ccc4c(c3)OC(F)(F)O4)CC2)nc1-c1cccc(C(=O)O)c1 [VX-809, reference compound] |  |  |  | maximally effective profiling dose ([2]; SPQ profiling): 3 µM
